Data on 99 compounds can be found in ChEMBL document CHEMBL3507680, “University of Dundee, Gates Library screen for HepG2 cell viability”.

A short description of the series: Human HepG2 cell viability assay in 384 well format. The format is toxicity, cell-based. On the set-up: dose 125 nL, time 70.5 hour; cytotoxicity at 70.5 h: concentration not given beside the values. To be noted: HepG2 cells, read-out: Inhibition.
In the case of `CCC(C)NC(=O)c1ccc(NC(=O)CCCn2cncn2)c(C)c1` (centres undefined), the cytotoxicity at 70.5 h stood at 14.8%. Take `Clc1ccc(-c2nnc([C@H]3CCN(C4CCCCC4)C3)o2)cc1`: the cytotoxicity at 70.5 h was -3.54%. Under `O=C(O)c1cnc(N2CCCC2)nc1COc1ccc(F)cc1` stands -21.1%.

As for `CCc1[nH]c2c(CNC(=O)[C@@H]3CCCN3C)cc(C)cc2c1C`, the cytotoxicity at 70.5 h was 6.71%.

For the compound `CC(C)(CO)Nc1ccc(-c2nc(-c3ccccc3F)no2)cn1`, the cytotoxicity at 70.5 h was -5.95%. As for `O=C(c1cccnc1)N1CCC[C@]2(C[C@H](Oc3ncccc3F)CO2)C1`, the cytotoxicity at 70.5 h is 0.397%. Under `Cc1cc(F)ccc1-c1ccccc1CC1CNCCNC1=O` (centres undefined) stands 5.41%; under `CCC(C(=O)N(Cc1ccccc1OC)C1CC1)n1cccn1` (centres undefined), -10.3%. Take `Cc1cc(NCCN2CCNC2=O)nc2cc3c(cc12)CCC3`: the cytotoxicity at 70.5 h is -4.19%.

With `Cn1cc(C(=O)N2CC[C@@H]3[C@@H]2CCN3Cc2ccncc2)cn1`, the cytotoxicity at 70.5 h is -12.1%. Take `COCCN1CCN(CC(=O)N(C)Cc2ccsc2)CC1C` (centres undefined): the cytotoxicity at 70.5 h is -7.6%. In the case of `NC(=O)C1=NN2C(=NS(=O)(=O)c3ccccc32)N1`, the cytotoxicity at 70.5 h is -106%.

As for `O=C(c1ccc(-c2ccc(O)nc2)s1)N1CCCCCC1`, the cytotoxicity at 70.5 h is -10.4%. `CCN(CC1CCOC1)C(=O)c1cn2ccc(C)cc2n1` (centres undefined): the cytotoxicity at 70.5 h is -16.3%. On to `Cn1cnnc1Sc1ccc(NC(=O)C2CC2)cc1Cl`, for which the cytotoxicity at 70.5 h was -9.39%. In the case of `Cc1ncsc1C(=O)NC1CCN(Cc2cccc3c2OCCO3)CC1`, the cytotoxicity at 70.5 h is -0.651%. On to `CC(C)N(Cc1ccccc1)C(=O)NCCNC(=O)c1cccnc1`, for which the cytotoxicity at 70.5 h was -13.6%. As for `Cc1noc(C)c1CNCC1CNc2ccnn2C1` (centres undefined), the cytotoxicity at 70.5 h was -7.43%. `CC(C)CS(=O)(=O)CC(=O)NC(C)(C)c1cccc(F)c1`: the cytotoxicity at 70.5 h turned out to be 6.38%. In the case of `O=C(C1CCC1)N1CCC2(CC1)CNCCO2`, the cytotoxicity at 70.5 h turned out to be 4.67%. Under `Cc1cccc(N2CCC(N3CCCC4(CN(C)C(=O)O4)C3)CC2)c1C` (centres undefined) stands -9.98%; under `CCCc1cc(=O)[nH]c2nnc(SCC(=O)NCCc3ccccc3)n12`, -5.81%; under `C=C(C)COc1cccc(C(=O)N(C)Cc2cc(CC)no2)c1`, -3.37%. In the case of `CN(CC1CCOC1)S(=O)(=O)c1cccc(C(=O)N2CCOCC2)c1` (centres undefined), the cytotoxicity at 70.5 h was -4.27%.

With `CCN1CC2(CC1=O)CN(Cc1cccs1)CCN(C(=O)C(C)C)C2` (centres undefined), the cytotoxicity at 70.5 h was found to be 2.16%. For the compound `O=S(=O)(Cc1ccccc1)c1nnc(N2CCOCC2)s1`, the cytotoxicity at 70.5 h was -9.13%. Regarding `Cc1csc2c(=O)n3c(nc12)CCN(C(=O)c1ccnn1C)CC3`, the cytotoxicity at 70.5 h is -6.6%. Turning to `O=C(CCc1ccccc1Br)N1CC(S(=O)(=O)C2CCCCC2)C1`, the cytotoxicity at 70.5 h was -5.63%. As for `COC(=O)c1cnn(-c2cc(Oc3cccc(C)c3)ncn2)c1N`, the cytotoxicity at 70.5 h is 4%. With `CC(C)CN1CCO[C@H]2CCN(c3cnccn3)CC[C@@H]21`, the cytotoxicity at 70.5 h is -8.81%. To `COCc1ncn2c1CN(C(=O)c1ccco1)CC2` belongs 1.28%. `Cn1cc(CN2CCC(c3ccncc3)CC2)cn1`: the cytotoxicity at 70.5 h is -9.54%. To `Cc1c[nH]nc1C1CCN(C(=O)C2CCOCC2)C1` (centres undefined) belongs 12.3%; to `COCC(=O)N1CCC2(CC1)C(=O)N(Cc1cccnc1)CCN2C`, 28.3%; to `COCCN1CCC2(C1)c1ccccc1S(=O)(=O)N2Cc1ccccc1` (centres undefined), 1.99%. Under `Cn1cc(CCNC(=O)CCc2ccc3c(c2)OCO3)cn1` stands -8.33%; under `CCCC(C)NCc1cnc(-c2cccc(C)c2)nc1` (centres undefined), 1.72%; under `Cc1csc(CNC(=O)N(C)Cc2ccc3c(c2)OCCO3)n1`, -10.6%. As for `CCC[C@H]1CN(S(=O)(=O)c2cc(C)ccc2C)C[C@@H]1N`, the cytotoxicity at 70.5 h was -0.438%.

Regarding `COc1ccccc1CN1C(=O)O[C@@H]2CN(c3ccccn3)C[C@@H]21`, the cytotoxicity at 70.5 h turned out to be 22.7%. For `O=C(Nc1cccs1)NC(CCCO)c1ccccc1` (centres undefined), the cytotoxicity at 70.5 h was -17.7%.

Turning to `Cc1cc(NC(=O)NC(C)(C)c2nc(C)c(C)s2)no1`, the cytotoxicity at 70.5 h is -8.02%.

`CCC(O)CN1CCN(C(=O)C2(c3ccc(C)c(OC)c3)CC2)CC1` (centres undefined): the cytotoxicity at 70.5 h was found to be 4.09%.

Turning to `Cc1ccc(NC(=O)N2CCN(Cc3noc(C4CC4)n3)CC2)cc1`, the cytotoxicity at 70.5 h turned out to be 27.4%. To `Cc1cnc(CNC(=O)NCCOc2ncccc2Cl)s1` belongs -3.34%; to `CC(C)C(c1cccnc1)N(C)C(=O)Cc1ccc(O)cc1` (centres undefined), 0.393%; to `O=C(O)C1CN(c2cncc(Cc3ccccc3F)n2)C1`, -6.79%. As for `CCNC(=O)c1sccc1N(C)S(=O)(=O)c1ccc(Cl)cc1`, the cytotoxicity at 70.5 h came out at 1.21%. With `CC(C)n1ncc2cc(NC(=O)N3CCSCC3)cnc21`, the cytotoxicity at 70.5 h was -3.2%. In the case of `CC(C)N1CCC(CC(=O)N(C)CC(=O)c2ccc(O)cc2)CC1`, the cytotoxicity at 70.5 h was -1.48%. As for `O=C(C1CC2(CCNCC2)CN1)N1CCN(c2cccc(Cl)c2Cl)CC1` (centres undefined), the cytotoxicity at 70.5 h is -1.58%.

As to `CC(C)(CNc1cn[nH]c(=O)c1Cl)c1ccc2c(c1)OCCO2`, the cytotoxicity at 70.5 h was -13.9%. To `CS(=O)(=O)N1C[C@H](NC(=O)c2ccno2)[C@@H]2OCCC[C@@H]21` belongs -7.45%; to `CN(CCCc1nccn1C)C(=O)C1CCN(C(=O)C2CCCC2)CC1`, 4.09%. Consider `CC1c2ncc(Cn3cncn3)n2CCN1C(=O)[C@H]1CCCO1` (some centres undefined), for which the cytotoxicity at 70.5 h was -8.44%.

For the compound `CCN(CC)S(=O)(=O)NC1CCCc2nc(-c3ccccc3)ncc21` (centres undefined), the cytotoxicity at 70.5 h is -7.72%.

As for `O=C(c1ccccc1)N1Cc2nccn2CC(Cn2ncccc2=O)C1` (centres undefined), the cytotoxicity at 70.5 h was -6.78%. Turning to `CC(=O)NCCNC(=O)c1sc(-c2ccc(Cl)s2)nc1C`, the cytotoxicity at 70.5 h was determined as 28.8%. Consider `CN1CCN(Cc2ccccc2CNC(=O)c2cc(Br)ccc2F)CC1`, for which the cytotoxicity at 70.5 h is 10.8%. Turning to `CNC(=O)C1CCCCN1C(=O)C1CCN(S(C)(=O)=O)CC1` (centres undefined), the cytotoxicity at 70.5 h is -11.7%. Under `CC(=O)N1CCC[C@H]1C(=O)NCCCN(C(C)C)S(C)(=O)=O` stands -6.32%; under `COc1ncccc1C(=O)NCCn1cnc(C)cc1=O`, -2.32%. As to `COCCC1(C(=O)O)CCCN(CC(=O)NCCc2ccccc2)C1` (centres undefined), the cytotoxicity at 70.5 h is 27.1%. For the compound `CCn1c(C)nnc1CN(C)C1CCN(Cc2ccccn2)C1` (centres undefined), the cytotoxicity at 70.5 h is -2.44%. To `CNC(=O)c1cccnc1Oc1ccccc1` belongs -5.8%. As for `O=C1CC(N(C(=O)c2ccc3[nH]c4c(c3c2)CCCC4)C2CC2)C(=O)N1` (centres undefined), the cytotoxicity at 70.5 h came to 39.1%. As for `Cc1ncc(-c2ccncc2)c(C2CCCN(C(=O)c3ccno3)C2)n1` (centres undefined), the cytotoxicity at 70.5 h stood at 5.49%.

For `CC(C)c1nnc2n1CCN(C(=O)c1ccc(OCC3CC3)cc1)C2`, the cytotoxicity at 70.5 h was -6.55%.

Turning to `O=C(c1cnccn1)N1CCN2C[C@H](OCc3ccccn3)C[C@H]2C1`, the cytotoxicity at 70.5 h was -10.5%. To `Cc1ccc(-c2nc(CN3CCCC(Cn4cncn4)C3)no2)cc1` (centres undefined) belongs 27.5%.

Take `CC(C)(C)n1ncc2c(=O)[nH]c(N3CCC4(CCCCC4)C3)nc21`: the cytotoxicity at 70.5 h is -2.75%. Regarding `CSCC(=O)N1C[C@@H](C)[C@](O)(C(C)C)C1`, the cytotoxicity at 70.5 h is -7.39%. Turning to `CC(=O)NCCc1cc(N2CCN(C(C)=O)CC2)nc(C2CC2)n1`, the cytotoxicity at 70.5 h was -5.29%. On to `CC(=O)NCc1cc2n(n1)CCN(Cc1cc(-c3ccccc3)no1)C2`, for which the cytotoxicity at 70.5 h is -18.6%.

For `COc1cc(C(C)=O)ccc1SCC(=O)Nc1ccccn1`, the cytotoxicity at 70.5 h worked out at 21.7%. Under `OC(COCc1ccc2c(c1)OCO2)CN1CC(n2cccn2)C1` (centres undefined) stands 3.04%. In the case of `CN(C)C(=O)COC1COC2(CCN(c3ncccn3)CC2)C1` (centres undefined), the cytotoxicity at 70.5 h was -7.32%. Turning to `COc1cccc(CCCNC(=O)N2CCC(O)(C(F)(F)F)C2)c1` (centres undefined), the cytotoxicity at 70.5 h is -2.72%. Under `COc1nc(C)cc(C)c1CNC(=O)N(C)Cc1cnn(C)c1` stands -18%.

Turning to `O=C1C(N2CCOC3(CCCC3)C2)CCN1C1CC1` (centres undefined), the cytotoxicity at 70.5 h was -1.76%. In the case of `CCCn1cnnc1CNC(=O)C1COc2c(cccc2OC)C1` (centres undefined), the cytotoxicity at 70.5 h was -11.4%. Consider `CS(=O)(=O)N1CC(c2nc[nH]n2)c2cc(C(=O)NC3CC3)ccc21` (centres undefined), for which the cytotoxicity at 70.5 h is -3.52%. Consider `COCCCN1CCCC(c2nccn2CC2CCC2)C1` (centres undefined), for which the cytotoxicity at 70.5 h is -15%. `CCNC(=O)NC1CCN(c2ccc(S(=O)(=O)CC)cc2)CC1`: the cytotoxicity at 70.5 h worked out at 0.434%. On to `CN(CC(=O)NCC(O)c1cccc(F)c1)C(=O)OC(C)(C)C` (centres undefined), for which the cytotoxicity at 70.5 h was -3.05%. For the compound `CCN(CC)S(=O)(=O)NCc1ccc(-c2ccc(C(N)=O)c(C)n2)cc1`, the cytotoxicity at 70.5 h was -12.3%. With `COCCCNC(=O)COc1ccccc1C(F)(F)F`, the cytotoxicity at 70.5 h is -5.58%.

Consider `CC(C)CCC(=O)N1CCN(C(C)c2nnc(CC(C)C)o2)CC1` (centres undefined), for which the cytotoxicity at 70.5 h stood at 23.3%. In the case of `O=C(c1cocn1)N1CCC2(CC1)CC(Oc1ccccn1)CO2` (centres undefined), the cytotoxicity at 70.5 h is -8.48%. Turning to `CCc1nc(NC2CC(=O)N(CC3CCCCC3)C2)ncc1C` (centres undefined), the cytotoxicity at 70.5 h was -8.17%. In the case of `CN1CCN(C2CCN(Cc3nc(-c4ccoc4)no3)CC2)C1=O`, the cytotoxicity at 70.5 h is -6.16%.

For the compound `CCc1nc(CN2CCN(C(=O)N3CCCCC3)CC2)cs1`, the cytotoxicity at 70.5 h is 21.4%. Consider `O=C(Nc1nncs1)c1ccc(-n2cnnn2)cc1`, for which the cytotoxicity at 70.5 h came to 1.5%. To `Cc1cc(C[C@@H]2COC[C@H]2NCc2ccc(Br)s2)on1` belongs 22.3%; to `CCC1(c2ccc(NS(=O)(=O)c3cccs3)cc2)CCC(=O)NC1=O` (centres undefined), -1.8%. Consider `N#Cc1cn(C2CC2)c(=O)n(CC(O)c2ccc(Cl)cc2)c1=O` (centres undefined), for which the cytotoxicity at 70.5 h was -3.7%. On to `OCCn1cc(CN2CCN(CCOc3ccc(F)cc3)CC2)cn1`, for which the cytotoxicity at 70.5 h was -2.54%.

On to `O=C(NCc1ccccc1F)NCC(O)c1cccc(F)c1` (centres undefined), for which the cytotoxicity at 70.5 h was -10.3%. Turning to `CN1CCC(N(C)CCC(=O)N2CCC(CCc3ccccc3)CC2)C1` (centres undefined), the cytotoxicity at 70.5 h amounted to 26.3%.
